Test results from patent US20240277683A1, “COMPOUNDS” (CTXT PTY LTD, priority 2018, published 2024).
pIC50: −log10 of the molar value. Like-named read-outs stand apart in the source and are kept apart here.

Experiments:
[1] = test system: acetylation of the histone H3 Lysine 14 marker in U2OS cells; assay: Histone H3 Lysine 14 Acetylation Biomarker Assay; assay type: cell-based; conditions: Homo sapiens
Method: Compounds may be tested for their ability to inhibit acetylation of the histone H3 Lysine 14 marker in the following assay:
(§1) The cell line U2OS was seeded at a density of 3,000 cells per well in 384-well optical quality tissue culture plates in RPMI medium supplemented with 10% foetal bovine serum and 10 mM Hepes. The cells were allowed to adhere for 24 hours under standard culture conditions (37 degree Celsius, 5% CO2). At the end of this period the cells were washed with serum free medium. […] Plates were washed and read on a PerkinElmer Opera HCS high content imaging platform.

[2] = test system: histone H2A.Z Lysine 7 acetylation marker in U2OS cells; assay: H2A.Z Lysine 7 Acetylation Biomarker Assay; assay type: cell-based; conditions: Homo sapiens
Method: Compounds may be tested for their ability to inhibit the histone H2A.Z Lysine 7 acetylation marker in the following assay:
as §1

[3] = test system: acetylation of the histone H3K23 marker in U2OS cells; assay: Histone H3 Lysine 23 Acetylation Biomarker Assay; assay type: cell-based; conditions: Homo sapiens
Method: Compounds may be tested for their ability to inhibit acetylation of the histone H3K23 marker in the following assay:
The cell line U2OS was seeded at a density of 9,000 cells per well in 96 well optical quality tissue culture plates in RPMI medium and 10% foetal bovine serum, and allowed to adhere for 24 hours under standard culture conditions (37 degree Celsius, 5% CO2). At the end of this period the medium was aspirated. […] After incubation for 24 hours, the cells were fixed with 3.7% formaldehyde in PBS for 20 minutes at room temperature, washed (5×5 minutes) with phosphate buffer saline containing 0.1% Tween 20 and blocked with Odyssey blocking buffer (LI-COR, Lincoln, NE) containing 0.1% TritonX100. Anti-H3K23ac specific antibody (Abcam ab177275) in Odyssey blocking buffer containing 0.1% Tween 20 was added and incubated for 16 hours at 4 degree Celsius. […] Plates were washed as previously and read on a PerkinElmer Phenix high content imaging platform.

HBO-KAT7 = HBO-KAT7 (Homo sapiens (Human), UniProt O95251); assay: Acetyltransferase biochemical assay (AlphaScreen), KAT7; conditions: 1 μM AcCoA, histone H3.1
Chain of HBO-KAT7 (O95251 other isoform, or with tags, fused parts or gaps): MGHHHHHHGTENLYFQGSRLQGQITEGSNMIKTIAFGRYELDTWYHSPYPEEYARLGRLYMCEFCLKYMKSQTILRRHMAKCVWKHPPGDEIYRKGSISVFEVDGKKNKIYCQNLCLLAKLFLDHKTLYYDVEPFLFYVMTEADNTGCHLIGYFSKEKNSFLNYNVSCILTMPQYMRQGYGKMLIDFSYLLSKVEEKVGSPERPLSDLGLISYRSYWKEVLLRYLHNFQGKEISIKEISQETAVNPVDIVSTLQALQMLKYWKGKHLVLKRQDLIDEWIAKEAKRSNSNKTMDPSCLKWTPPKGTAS

TIP60-KAT5 = TIP60-KAT5 (Homo sapiens (Human), UniProt Q92993); assay: Acetyltransferase biochemical assay (AlphaScreen), KAT5; conditions: 1 μM AcCoA, histone H4
Chain of TIP60-KAT5 (Q92993 other isoform, or with tags, fused parts or gaps): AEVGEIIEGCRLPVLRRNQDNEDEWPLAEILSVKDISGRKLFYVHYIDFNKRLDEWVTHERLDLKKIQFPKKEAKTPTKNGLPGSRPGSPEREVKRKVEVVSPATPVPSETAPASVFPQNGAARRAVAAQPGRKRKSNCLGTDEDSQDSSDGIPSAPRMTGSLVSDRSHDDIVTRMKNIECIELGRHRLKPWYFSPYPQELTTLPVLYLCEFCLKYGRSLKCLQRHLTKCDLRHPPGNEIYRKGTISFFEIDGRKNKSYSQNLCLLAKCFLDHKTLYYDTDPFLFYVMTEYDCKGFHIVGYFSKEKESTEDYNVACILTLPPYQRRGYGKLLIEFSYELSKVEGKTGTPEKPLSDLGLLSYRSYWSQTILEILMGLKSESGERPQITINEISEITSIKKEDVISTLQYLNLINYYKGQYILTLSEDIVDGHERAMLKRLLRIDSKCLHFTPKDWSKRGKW

MOF-KAT8 = MOF-KAT8 (Homo sapiens (Human), UniProt Q9H7Z6); assay type: biochemical; conditions: 1 μM AcCoA, histone H4
Chain of MOF-KAT8 (Q9H7Z6 177-447): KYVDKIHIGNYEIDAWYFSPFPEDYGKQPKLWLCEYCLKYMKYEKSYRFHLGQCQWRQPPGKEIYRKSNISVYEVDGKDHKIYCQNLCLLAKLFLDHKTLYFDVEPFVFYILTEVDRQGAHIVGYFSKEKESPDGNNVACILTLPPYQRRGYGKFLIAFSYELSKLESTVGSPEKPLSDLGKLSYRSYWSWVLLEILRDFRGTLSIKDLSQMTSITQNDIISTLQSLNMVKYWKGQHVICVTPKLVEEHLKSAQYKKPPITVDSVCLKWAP

MOZ-KAT6A = MOZ-KAT6A (Homo sapiens (Human), UniProt Q92794); assay: Acetyltransferase biochemical assay (AlphaScreen), KAT6A; conditions: 1 μM AcCoA, histone H3.1
Chain of MOZ-KAT6A (Q92794 other isoform, or with tags, fused parts or gaps): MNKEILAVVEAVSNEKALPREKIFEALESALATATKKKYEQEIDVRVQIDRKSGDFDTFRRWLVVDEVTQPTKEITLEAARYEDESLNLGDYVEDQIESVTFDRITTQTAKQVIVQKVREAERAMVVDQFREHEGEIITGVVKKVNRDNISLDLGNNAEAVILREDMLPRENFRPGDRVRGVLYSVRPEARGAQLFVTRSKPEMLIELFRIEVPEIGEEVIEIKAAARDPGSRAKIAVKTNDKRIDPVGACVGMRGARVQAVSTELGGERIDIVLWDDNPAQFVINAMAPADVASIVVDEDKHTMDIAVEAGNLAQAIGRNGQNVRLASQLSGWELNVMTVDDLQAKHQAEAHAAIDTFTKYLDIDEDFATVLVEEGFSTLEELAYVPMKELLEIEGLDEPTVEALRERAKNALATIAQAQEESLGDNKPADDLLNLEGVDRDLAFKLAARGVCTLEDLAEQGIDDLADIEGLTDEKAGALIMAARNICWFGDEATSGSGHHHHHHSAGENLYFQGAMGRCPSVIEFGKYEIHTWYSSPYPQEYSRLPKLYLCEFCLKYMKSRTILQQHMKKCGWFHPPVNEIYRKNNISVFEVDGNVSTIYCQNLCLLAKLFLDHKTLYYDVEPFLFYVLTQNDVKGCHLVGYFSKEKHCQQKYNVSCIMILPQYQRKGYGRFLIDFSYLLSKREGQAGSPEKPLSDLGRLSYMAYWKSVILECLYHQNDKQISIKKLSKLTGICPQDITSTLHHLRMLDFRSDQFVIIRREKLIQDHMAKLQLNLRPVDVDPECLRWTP

[4] = H3K14ac, U2OS cells, serum free medium, 24 hours, read-out: IC50
[5] = H2A.ZK7ac, U2OS cells, serum free medium, 24 hours, read-out: IC50
[6] = H3K23ac, U2OS cells, 24 hours, read-out: IC50

CCc1ccc(OC)cc1-c1cc(NS(=O)(=O)c2c(OC)cccc2OC)no1 [Example 23, N-(5-(2-Ethyl-5-methoxyphenyl)isoxazol-3-yl)-2,6-dimethoxybenzenesulfonamide]
pIC50 [1, 4]: 6.67 | pIC50 [2, 5]: 5.00 | pIC50 [3, 6]: 6.75

O=S(=O)(Nc1cc(-c2ccccc2)on1)c1cccnc1 [Example 30, N-(5-phenylisoxazol-3-yl)pyridine-3-sulfonamide]
pIC50 (HBO-KAT7): < 3.90 | pIC50 (TIP60-KAT5): < 3.90

O=S(=O)(Nc1cc(-c2ccccc2)on1)c1cccc(Cl)c1 [Example 35, 3-chloro-N-(5-phenylisoxazol-3-yl)benzenesulfonamide]
pIC50 (HBO-KAT7): < 3.90 | pIC50 (TIP60-KAT5): < 3.90

COc1cccc(S(=O)(=O)Nc2cc(-c3ccccc3)on2)c1 [Example 36, 3-methoxy-N-(5-phenylisoxazol-3-yl)benzenesulfonamide]
pIC50 (TIP60-KAT5): < 3.90

N#Cc1ccc(S(=O)(=O)Nc2cc(-c3ccccc3)on2)cc1 [Example 45, 4-cyano-N-(5-phenylisoxazol-3-yl)benzenesulfonamide]
pIC50 (MOF-KAT8): < 3.90 | pIC50 (TIP60-KAT5): < 3.90

N#Cc1cccc(S(=O)(=O)Nc2cc(-c3ccccc3)on2)c1 [Example 46, 3-cyano-N-(5-phenylisoxazol-3-yl)benzenesulfonamide]
pIC50 (TIP60-KAT5): < 3.90

O=S(=O)(Nc1cc(-c2ccccc2)on1)c1ccc(C(F)(F)F)cc1 [Example 47, N-(5-phenylisoxazol-3-yl)-4-(trifluoromethyl)benzenesulfonamide]
pIC50 (TIP60-KAT5): < 3.90

COc1ccccc1-c1cc(N(C)S(=O)(=O)c2c(OC)cc(-c3ccccc3)cc2OC)no1 [Example 55, 2,6-Dimethoxy-N-[5-(2-methoxyphenyl)isoxazol-3-yl]-N-methyl-4-phenyl-benzenesulfonamide]
pIC50 (MOF-KAT8): < 3.90 | pIC50 (TIP60-KAT5): < 3.90

COc1ccccc1-c1cc(NS(=O)(=O)c2c(OC)cccc2OC)no1 [Example 56, 2,6-Dimethoxy-N-(5-(2-methoxyphenyl)isoxazol-3-yl)benzenesulfonamide]
pIC50 ([1]; U2OS, 24 h): 5.58 | pIC50 ([2]; U2OS, 24 h): 4.62 | pIC50 ([3]; U2OS, 24 h): 5.68

O=S(=O)(Nc1cc(-c2ccccc2)on1)c1ccccc1 [Example 63, N-(5-phenylisoxazol-3-yl)benzenesulfonamide]
pIC50 (MOF-KAT8): < 3.90

O=S(=O)(Nc1noc(-c2ccccc2)n1)c1ccccc1F [Example 68, 2-Fluoro-N-(5-phenyl-1,2,4-oxadiazol-3-yl)benzenesulfonamide]
pIC50 (HBO-KAT7): < 3.90 | pIC50 (TIP60-KAT5): < 3.90

COc1ccc(-c2ccn[nH]2)cc1-c1cc(NS(=O)(=O)c2c(OC)cccc2OC)no1 [Example 72, 2,6-Dimethoxy-N-(5-(2-methoxy-5-(1H-pyrazol-5-yl)phenyl)isoxazol-3-yl)benzenesulfonamide]
pIC50 ([1]; U2OS, 24 h): 6.24 | pIC50 ([2]; U2OS, 24 h): 5.32 | pIC50 ([3]; U2OS, 24 h): 6.69

COCc1ccc(OC)c(-c2cc(NS(=O)(=O)c3c(OC)cccc3OC)no2)c1 [Example 73, 2,6-Dimethoxy-N-(5-(2-methoxy-5-(methoxymethyl)phenyl)isoxazol-3-yl)benzenesulfonamide]
pIC50 ([1]; U2OS, 24 h): 5.89 | pIC50 ([2]; U2OS, 24 h): 4.45 | pIC50 ([3]; U2OS, 24 h): 7.77

COC(=O)c1c(-c2ccc(OC)cc2)noc1NS(=O)(=O)c1ccc(C)c(C)c1 [Example 83, methyl 5-((3,4-dimethylphenyl)sulfonamido)-3-(4-methoxyphenyl)isoxazole-4-carboxylate]
pIC50 (HBO-KAT7): < 3.90

CCc1ccc(OC)c(S(=O)(=O)Nc2cc(-c3ccncc3)no2)c1 [Example 85, 5-Ethyl-2-methoxy-N-(3-(pyridin-4-yl)isoxazol-5-yl)benzenesulfonamide]
pIC50 (TIP60-KAT5): < 3.90

COCc1ccc(OC)cc1-c1nnc(NS(=O)(=O)c2c(OC)cccc2OC)s1 [Example 96, 2,6-Dimethoxy-N-(5-(5-methoxy-2-(methoxymethyl)phenyl)-1,3,4-thiadiazol-2-yl)benzenesulfonamide]
pIC50 [1, 4]: 5.13 | pIC50 [2, 5]: 4.56 | pIC50 [3, 6]: 5.40

COc1cccc(OC)c1S(=O)(=O)Nc1nnc(-c2ccccc2Cn2cccn2)s1 [Example 101, N-(5-(2-((1H-Pyrazol-1-yl)methyl)phenyl)-1,3,4-thiadiazol-2-yl)-2,6-dimethoxybenzenesulfonamide]
pIC50 (MOZ-KAT6A): < 3.90 | pIC50 (TIP60-KAT5): < 3.90

COc1ccc(-n2cccn2)cc1-c1cc(NS(=O)(=O)c2c(OC)cccc2OC)no1 [Example 105, 2,6-Dimethoxy-N-(5-(2-methoxy-5-(1H-pyrazol-1-yl)phenyl)isoxazol-3-yl)benzenesulfonamide]
pIC50 [1, 4]: 5.52 | pIC50 [2, 5]: 4.77 | pIC50 [3, 6]: 6.76

COc1ccccc1-c1cc(NS(=O)(=O)Nc2ccccc2)no1 [Example 116, N-Phenyl((5-(2-methoxyphenyl)-1,2-oxazol-3-yl)amino)sulfonamide]
pIC50 ([1]; U2OS, 24 h): < 4.40 | pIC50 ([2]; U2OS, 24 h): < 4.40 | pIC50 ([3]; U2OS, 24 h): < 4.70

CCc1ccc(OC)c(S(=O)(=O)Nc2nnc(-c3ccc(OC)c(OC)c3)o2)c1 [Example 125, N-(5-(3,4-Dimethoxyphenyl)-1,3,4-oxadiazol-2-yl)-5-ethyl-2-methoxybenzenesulfonamide]
pIC50 (TIP60-KAT5): < 3.90

COc1ccccc1-c1nnc(NS(=O)(=O)C2CCOCC2)s1 [Example 127, N-(5-(2-methoxyphenyl)-1,3,4-thiadiazol-2-yl)tetrahydro-2H-pyran-4-sulfonamide]
pIC50 (MOZ-KAT6A): < 3.90 | pIC50 (TIP60-KAT5): < 3.90
